{"source": "paper PMC10165273", "about": "“Itch receptor MRGPRX4 interacts with the receptor activity–modifying proteins” (The Journal of Biological Chemistry, 2023)", "key": {"MRGPRX4 + RAMP2": {"target": "T1, MRGPRX4 + RAMP2 (Homo sapiens, UniProt Q96LA9)", "T1 construct": "expressed in transfected cells; host or cells: HEK293T", "T1 sequence (Q96LA9 whole entry)": "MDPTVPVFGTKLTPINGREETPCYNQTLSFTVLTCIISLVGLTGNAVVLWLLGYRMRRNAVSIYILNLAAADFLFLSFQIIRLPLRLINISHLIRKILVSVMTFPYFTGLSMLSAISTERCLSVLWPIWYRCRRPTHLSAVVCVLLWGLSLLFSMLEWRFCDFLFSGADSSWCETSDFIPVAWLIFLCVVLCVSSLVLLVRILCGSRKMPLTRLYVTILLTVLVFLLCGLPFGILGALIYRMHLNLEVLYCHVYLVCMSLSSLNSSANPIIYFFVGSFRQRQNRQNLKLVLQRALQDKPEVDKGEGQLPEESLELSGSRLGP", "experiment": "IP1 accumulation, MRGPRX4 coexpressed with RAMP2", "type": "cell-based", "design": "key to response to agonist, X4:ramp2.I:2: % IP1: mock-transfected unstimulated = 0%, fully stimulated MRGPRX4 = 100%; key to IP1 Basal / response to agonist, X4:ramp2.I:0.25 / response to agonist, X4:ramp2.I:0.5 / response to agonist, X4:ramp2.I:1: % IP1; unstimulated mock = 0%, fully stimulated MRGPRX4 = 100%", "conditions": "for activation at 20 µM / activation at 4 µM / activation at 0.8 µM / activation at […] / activation at 0.032 µM / activation at 100 µM: 2 h, Fig S3e, read-out: IP1 accumulation; for activation at 20 µM: log [DCA] (M) -4.69897; for activation at 4 µM: log [DCA] (M) -5.39794; for activation at 0.8 µM: log [DCA] (M) -6.09691; for activation at […]: log [DCA] (M) -6.79588; for activation at 0.032 µM: log [DCA] (M) -7.49485; for activation at 100 µM: log [DCA] (M) -4; for IP1 Basal / IP1 span (Emax minus basal) / Emax: normalized per agonist; for Emax: read-out: IP1 Emax", "procedure": "(§1) HEK293T cells were transfected with 1 pg/cell of MRGPRX4 DNA, and the amount of DNA was kept constant at 2 pg/cell with pcDNA3.1(+) empty vector, unless otherwise specified. Twenty four hours after transfection, IP1 assay was performed as previously described ([51]). When applicable, cells were treated with 1 μM YM254890 (YM) or different concentrations of U73122 for 1 h prior to addition of agonist or buffer. After incubation for 2 h, HTRF reagents and IP1 calibration standards were added and incubated for 2 h in the dark at room temperature. Time-resolved fluorescence signals were read on the BioTek Synergy NEO-TRF Hybrid multi-mode reader (BioTek Instruments). All data were carried out in three independent experiments with three technical replicate each.\n(§2) For RAMP DNA titration assay, HEK293T cells were cotransfected with a constant amount of 1 pg/cell of FLAG-MRGPRX4-GFP10-1D4 to which a serial dilution of 1, 0.75, 0.5, 0.25, or 0 pg/cell of each HA-RAMP-OLLAS was added. For a homogenous transfection of MRGPRX4, a master mix of MRGPRX4 DNA was made prior to addition of the RAMP DNA. […]\n(§3) Data reduction, standard calibration, and transformation of HTRF data were performed as previously described ([51]). Normalized IP1 values were calculated relative to the unstimulated mock-transfected cells (set to 0%) and fully stimulated MRGPRX4 (alone if applicable) (set to 100%)."}, "MRGPRX4 + RAMP3": {"target": "T2, MRGPRX4 + RAMP3 (Homo sapiens, UniProt Q96LA9)", "T2 construct": "expressed in transfected cells; host or cells: HEK293T", "T2 sequence (Q96LA9 whole entry)": "as above", "experiment": "IP1 accumulation, MRGPRX4 coexpressed with RAMP3", "type": "cell-based", "conditions": "2 h, ratio MRGPRX4:RAMP3 1:0.25, Fig S3f, read-out: IP1 accumulation", "procedure": "as §1, §2, §3"}, "[1]": {"conditions": "MRGPRX4 + RAMP2 0.25 pg (Fig. S3)"}, "[2]": {"conditions": "MRGPRX4 + RAMP2 0.5 pg (Fig. S3)"}}, "note": "Several values for one entry are separate records, joined by “and”; a condition that tells them apart may be missing. Equal values may be shown once. Read-outs that look alike come from different tables or passages of the source."}
{"smiles": "C[C@H](CCC(=O)O)[C@H]1CC[C@H]2[C@@H]3CC[C@@H]4C[C@H](O)CC[C@]4(C)[C@H]3C[C@H](O)[C@]12C", "note": "[DCA, deoxycholic acid]", "values": [{"measurement": "activation at 20 µM", "setting": "MRGPRX4 + RAMP2; ratio MRGPRX4:RAMP2 1:0.25", "result": 59.5, "unit": "%"}, {"measurement": "activation at 4 µM", "setting": "MRGPRX4 + RAMP2; ratio MRGPRX4:RAMP2 1:0.25", "result": 39, "unit": "%"}, {"measurement": "activation at 0.8 µM", "setting": "MRGPRX4 + RAMP2; ratio MRGPRX4:RAMP2 1:0.25", "result": 28.2, "unit": "%"}, {"measurement": "activation at […]", "setting": "MRGPRX4 + RAMP2; ratio MRGPRX4:RAMP2 1:0.25", "result": 28.2, "unit": "%"}, {"measurement": "activation at 0.032 µM", "setting": "MRGPRX4 + RAMP2; ratio MRGPRX4:RAMP2 1:0.25", "result": 29.4, "unit": "%"}, {"measurement": "activation at 20 µM", "setting": "MRGPRX4 + RAMP2; ratio MRGPRX4:RAMP2 1:0.5", "result": 51.9, "unit": "%"}, {"measurement": "activation at 4 µM", "setting": "MRGPRX4 + RAMP2; ratio MRGPRX4:RAMP2 1:0.5", "result": 28.9, "unit": "%"}, {"measurement": "activation at 0.8 µM", "setting": "MRGPRX4 + RAMP2; ratio MRGPRX4:RAMP2 1:0.5", "result": 21.9, "unit": "%"}, {"measurement": "activation at […]", "setting": "MRGPRX4 + RAMP2; ratio MRGPRX4:RAMP2 1:0.5", "result": 21.5, "unit": "%"}, {"measurement": "activation at 100 µM", "setting": "MRGPRX4 + RAMP2; ratio MRGPRX4:RAMP2 1:1", "result": 56.6, "unit": "%"}, {"measurement": "activation at 20 µM", "setting": "MRGPRX4 + RAMP2; ratio MRGPRX4:RAMP2 1:1", "result": 35, "unit": "%"}, {"measurement": "activation at 0.8 µM", "setting": "MRGPRX4 + RAMP2; ratio MRGPRX4:RAMP2 1:1", "result": 13.8, "unit": "%"}, {"measurement": "activation at […]", "setting": "MRGPRX4 + RAMP2; ratio MRGPRX4:RAMP2 1:1", "result": 13.1, "unit": "%"}, {"measurement": "activation at 0.032 µM", "setting": "MRGPRX4 + RAMP2; ratio MRGPRX4:RAMP2 1:1", "result": 13.2, "unit": "%"}, {"measurement": "activation at 100 µM", "setting": "MRGPRX4 + RAMP2; ratio MRGPRX4:RAMP2 1:2", "result": 20.6, "unit": "%"}, {"measurement": "activation at 20 µM", "setting": "MRGPRX4 + RAMP2; ratio MRGPRX4:RAMP2 1:2", "result": 10.3, "unit": "%"}, {"measurement": "activation at 4 µM", "setting": "MRGPRX4 + RAMP2; ratio MRGPRX4:RAMP2 1:2", "result": 5.86, "unit": "%"}, {"measurement": "activation at […]", "setting": "MRGPRX4 + RAMP2; ratio MRGPRX4:RAMP2 1:2", "result": 6.3, "unit": "%"}, {"measurement": "activation at 0.032 µM", "setting": "MRGPRX4 + RAMP2; ratio MRGPRX4:RAMP2 1:2", "result": 5.62, "unit": "%"}, {"measurement": "response to agonist, X4:ramp2.I:0.25", "setting": "MRGPRX4 + RAMP2; Figure 4c-f, agonist 100µM, X4:ramp2 1:0.25, MRGPRX4 = 100", "result": "82.2333 and 78.588"}, {"measurement": "response to agonist, X4:ramp2.I:0.5", "setting": "MRGPRX4 + RAMP2; Figure 4c-f, agonist 100µM, X4:ramp2 1:0.5, MRGPRX4 = 100", "result": "59.4831 and 67.5869"}, {"measurement": "response to agonist, X4:ramp2.I:1", "setting": "MRGPRX4 + RAMP2; Figure 4c-f, agonist 100µM, X4:ramp2 1:1, MRGPRX4 = 100", "result": "42.5729 and 40.2351"}, {"measurement": "response to agonist, X4:ramp2.I:2", "setting": "MRGPRX4 + RAMP2; Figure 4c-f, agonist 100µM, X4:ramp2 1:2, MRGPRX4 = 100", "result": "19.2213 and 20.608"}, {"measurement": "IP1 Basal", "setting": "MRGPRX4 + RAMP2; [1]", "result": 22.40}, {"measurement": "IP1 span (Emax minus basal)", "setting": "MRGPRX4 + RAMP2; [1]", "result": 84.8, "unit": "%"}, {"measurement": "Emax", "setting": "MRGPRX4 + RAMP2; [1]", "result": 107, "unit": "%"}, {"measurement": "IP1 Basal", "setting": "MRGPRX4 + RAMP2; [2]", "result": 17.50}, {"measurement": "IP1 span (Emax minus basal)", "setting": "MRGPRX4 + RAMP2; [2]", "result": 77, "unit": "%"}, {"measurement": "Emax", "setting": "MRGPRX4 + RAMP2; [2]", "result": 94.5, "unit": "%"}, {"measurement": "IP1 Basal", "setting": "MRGPRX4 + RAMP2; MRGPRX4 + RAMP2 1 pg (Fig. S3)", "result": 11.18}, {"measurement": "IP1 span (Emax minus basal)", "setting": "MRGPRX4 + RAMP2; MRGPRX4 + RAMP2 1 pg (Fig. S3)", "result": 45, "unit": "%"}, {"measurement": "Emax", "setting": "MRGPRX4 + RAMP2; MRGPRX4 + RAMP2 1 pg (Fig. S3)", "result": 56.2, "unit": "%"}, {"measurement": "IP1 Basal", "setting": "MRGPRX4 + RAMP2; MRGPRX4 + RAMP2 2 pg (Fig. S3)", "result": 5.412}, {"measurement": "IP1 span (Emax minus basal)", "setting": "MRGPRX4 + RAMP2; MRGPRX4 + RAMP2 2 pg (Fig. S3)", "result": 24.4, "unit": "%"}, {"measurement": "Emax", "setting": "MRGPRX4 + RAMP2; MRGPRX4 + RAMP2 2 pg (Fig. S3)", "result": 29.9, "unit": "%"}, {"measurement": "activation at 100 µM", "setting": "MRGPRX4 + RAMP3; log [DCA] (M) -4", "result": 92.7, "unit": "%"}, {"measurement": "activation at 20 µM", "setting": "MRGPRX4 + RAMP3; log [DCA] (M) -4.69897", "result": 69.5, "unit": "%"}, {"measurement": "activation at 4 µM", "setting": "MRGPRX4 + RAMP3; log [DCA] (M) -5.39794", "result": 48.4, "unit": "%"}, {"measurement": "activation at 0.8 µM", "setting": "MRGPRX4 + RAMP3; log [DCA] (M) -6.09691", "result": 35.7, "unit": "%"}, {"measurement": "activation at […]", "setting": "MRGPRX4 + RAMP3; log [DCA] (M) -6.79588", "result": 34.1, "unit": "%"}, {"measurement": "activation at 0.032 µM", "setting": "MRGPRX4 + RAMP3; log [DCA] (M) -7.49485", "result": 31.5, "unit": "%"}]}
